From patent publication US7989165B2, “Tape stripping methods for analysis of skin disease and pathological skin state” (DermTech International, priority 2004, dated 2011)
Values joined by “and” are separate entries in the source; they are usually repeats but may differ in a detail not shown here. Equal entries are not always repeated.

How the values were obtained:
Format in all cases: in vivo, human
IFNγ mRNA = test: RT-PCR of IFNγ mRNA in tape-stripped psoriatic lesions during Enbrel treatment; conditions: week 8 of treatment
Procedure: (§1) Patients were treated with Enbrel™ (Etanercept) over a period of months. Both before treatment commenced (week 0) and at various time points during treatment, a lesion was tape stripped using the synthetic rubber-based adhesive MA70 (Adhesives Research) on a polyurethane film. Adhesive strips were manufactured as circles of 17 mm diameter. Skin sites were sequentially stripped with 4 individual tapes, with each tape applied and removed once. The RNA isolated from the adherent cells on all 4 tapes (from one site) was pooled into one sample. Quantitation was by quantitative RT-PCR using the comparative method with β-actin mRNA as the internal normalizing mRNA standard and calibration achieved by using population average values for ΔCt in uninvolved skin of psoriatic subjects (Table 1).

IL-23A mRNA = test: RT-PCR of IL-23A mRNA in tape-stripped psoriatic lesions during Enbrel treatment; conditions: week 8 of treatment
Procedure: as §1

GAPDH mRNA = test: RT-PCR of GAPDH mRNA in tape-stripped psoriatic lesions during Enbrel treatment; conditions: week 8 of treatment
Procedure: as §1

TNFα mRNA = test: RT-PCR of TNFα mRNA in tape-stripped psoriatic lesions during Enbrel treatment; conditions: week 8 of treatment
Procedure: as §1

IL-12B mRNA = test: RT-PCR of IL-12B mRNA in tape-stripped psoriatic lesions during Enbrel treatment; conditions: week 8 of treatment
Procedure: as §1

psoriasis = test: Clinical assessment of psoriasis (NPF Score) during Enbrel treatment; set-up: NPF Score: scale not given here
Procedure: as §1
Rather than calibrate the lesion samples to uninvolved skin of each patient, we have chosen to calibrate to population average values to gain a fold-change relative to non-psoriatic skin. The results of calibrating to each patient's uninvolved skin values were virtually identical (data not shown). […] Thus, positive changes in ΔCt values of these specific mRNAs are negatively correlated with the change from baseline at week 8 in NPF scores. […] In order to assess the significance this observation, the AC, and NPF data in Table 10 was analyzed.

[1] = psoriatic lesion, tape-harvested RNA, relative to β-actin mRNA, one value per patient (P2-P7)

Enbrel
Fold Change (Pop-UIS), INFγ mRNA (IFNγ mRNA; INFγ/β-actin mRNA ratio in lesion relative to population average of uninvolved skin, per patient): 0.59 fold and 48.17 fold and 1.49 fold and 8.17 fold and 2.58 fold and 3.25 fold
ΔCt (Lesion), INFγ mRNA (IFNγ mRNA; [1]): 11.27 and 4.91 and 9.92 and 7.47 and 9.13 and 8.8
Fold Change (Pop-UIS), IL-23A mRNA (IL-23A mRNA; IL-23A/β-actin mRNA ratio in lesion relative to population average of uninvolved skin, per patient): 5.43 fold and 24.25 fold and 5.70 fold and 9.99 fold and 17.03 fold and 18.64 fold
ΔCt (Lesion), IL-23A mRNA (IL-23A mRNA; [1]): 6.59 and 4.85 and 6.52 and 5.71 and 4.94 and 4.81
Fold Change (Pop-UIS), GAPDH mRNA (GAPDH mRNA; GAPDH/β-actin mRNA ratio in lesion relative to population average of uninvolved skin, per patient): 2.04 fold and 1.69 fold and 1.59 fold and 1.40 fold and 1.77 fold and 2.07 fold
ΔCt (Lesion), GAPDH mRNA (GAPDH mRNA; [1]): 1.04 and 1.31 and 1.4 and 1.58 and 1.25 and 1.02
Fold Change (Pop-UIS), TNFα mRNA (TNFα mRNA; TNFα/β-actin mRNA ratio in lesion relative to population average of uninvolved skin, per patient): 10.06 fold and 16.56 fold and 5.66 fold and 9.00 fold and 11.47 fold and 17.27 fold
ΔCt (Lesion), TNFα mRNA (TNFα mRNA; [1]): 4.99 and 4.27 and 5.82 and 5.15 and 4.8 and 4.21
Fold Change (Pop-UIS), IL-12B mRNA (IL-12B mRNA; IL-12B/β-actin mRNA ratio in lesion relative to population average of uninvolved skin, per patient): 0.51 fold and 9.45 fold and 5.31 fold and 11.24 fold and 27.86 fold and 105.42 fold
ΔCt (Lesion), IL-12B mRNA (IL-12B mRNA; [1]): 12.48 and 7.35 and 9.09 and >8.01 and 6.7 and 4.78
NPF Score (psoriasis; National Psoriasis Foundation Score at week 8 of treatment, one value per patient (P2-P7)): 10.7 (5×) and 10.3 (5×) and 16.7 (5×) and 18.7 (5×) and 11.7 (5×) and 12 (5×)
change in NPF score from baseline to week 8 (psoriasis; psoriatic patients, 8 weeks of treatment, negative indicates improvement in disease): negative
